Experimental data as given in ChEMBL document CHEMBL3046449, “Selective Herbicidal Activities of Ethyl 5-(4, 6-Dimethoxypyrimidin-2-ylcarbamoylsulfamoyl)-1-methylpyrazole-4-carboxylate and Its Related Compounds” (J Pestic Sci, 1990).

Tests used:
Pontederia vaginalis [1] = experiment: Herbicidal activity against Monochoria vaginalis assessed as weed control in transplanted rice field at 30 g/ha treated after 10 days transplanting; type: functional
Echinochloa crus-galli [2] = experiment: Herbicidal activity against Echinochloa crus-galli (barnyard grass) assessed as weed control in transplanted rice field at 30 g/ha treated after 10 days transplanting; type: functional
Cyperus serotinus [3] = experiment: Herbicidal activity against Cyperus serotinus assessed as weed control in transplanted rice field at 30 g/ha treated after 7 days transplanting; type: functional
Sagittaria pygmaea [4] = experiment: Herbicidal activity against Sagittaria pygmaea assessed as weed control in transplanted rice field at 30 g/ha treated after 7 days transplanting; type: functional
[5] = system: Schoenoplectiella juncoides; experiment: Herbicidal activity against Schoenoplectiella juncoides assessed as growth inhibition in paddy condition under greenhouse at 5 g/ha measured after 18 days by preemergence activity assay; type: functional; conditions: pre-emergence, 432 h, read-out: GI
Oryza sativa [6] = experiment: Effect on Oryza sativa (rice) plant growth in transplanted Oryza sativa field assessed as plant height at 30 g/ha treated after 10 days transplanting; type: organism-based; conditions: in vivo, other, 240 h
Oryza sativa [7] = experiment: Effect on Oryza sativa (rice) plant growth in transplanted Oryza sativa field assessed as plant height at 30 g/ha treated after 7 days transplanting; type: organism-based; conditions: in vivo, other, 168 h
Oryza sativa [8] = experiment: Effect on Oryza sativa (rice) plant growth in transplanted Oryza sativa field assessed as plant height at 30 g/ha treated after 3 days transplanting; type: organism-based; conditions: in vivo, other, 72 h
Oryza sativa [9] = experiment: Effect on Oryza sativa (rice) plant growth in transplanted Oryza sativa field assessed as plant height at 20 g/ha treated after 7 days transplanting; type: organism-based; conditions: in vivo, other, 168 h
Oryza sativa [10] = experiment: Effect on Oryza sativa (rice) plant growth in transplanted Oryza sativa field assessed as plant height at 20 g/ha treated after 3 days transplanting; type: organism-based; conditions: in vivo, other, 72 h
Cyperus serotinus [11] = experiment: Herbicidal activity against Cyperus serotinus assessed as weed control in transplanted rice field at 30 g/ha treated after 10 days transplanting; type: functional
Pontederia vaginalis [12] = experiment: Herbicidal activity against Monochoria vaginalis assessed as weed control in transplanted rice field at 30 g/ha treated after 7 days transplanting; type: functional
[13] = system: Schoenoplectiella juncoides; experiment: Herbicidal activity against Schoenoplectiella juncoides assessed as weed control in transplanted rice field at 30 g/ha treated after 7 days transplanting; type: functional
Oryza sativa [14] = experiment: Effect on Oryza sativa (rice) plant growth in transplanted Oryza sativa field assessed as number of tillers at 30 g/ha treated after 10 days transplanting; type: organism-based; conditions: in vivo, other, 240 h
Oryza sativa [15] = experiment: Effect on Oryza sativa (rice) plant growth in transplanted Oryza sativa field assessed as number of tillers at 20 g/ha treated after 7 days transplanting; type: organism-based; conditions: in vivo, other, 168 h
Pontederia vaginalis [16] = experiment: Herbicidal activity against Monochoria vaginalis assessed as weed control in transplanted rice field at 20 g/ha treated after 7 days transplanting; type: functional
Cyperus serotinus [17] = experiment: Herbicidal activity against Cyperus serotinus assessed as weed control in transplanted rice field at 20 g/ha treated after 3 days transplanting; type: functional
[18] = system: Schoenoplectiella juncoides; experiment: Herbicidal activity against Schoenoplectiella juncoides assessed as weed control in transplanted rice field at 20 g/ha treated after 3 days transplanting; type: functional
Echinochloa crus-galli [19] = experiment: Herbicidal activity against Echinochloa crus-galli (barnyard grass) assessed as weed control in transplanted rice field at 20 g/ha treated after 3 days transplanting; type: functional
Sagittaria pygmaea [20] = experiment: Herbicidal activity against Sagittaria pygmaea assessed as growth inhibition measured after 2 days by pre-emergence activity assay; type: functional
[21] = system: Schoenoplectiella juncoides; experiment: Herbicidal activity against Schoenoplectiella juncoides assessed as weed control in transplanted rice field at 30 g/ha treated after 3 days transplanting; type: functional

With CCOC(=O)c1cnn(C)c1S(=O)(=O)NC(=O)Nc1nc(OC)cc(OC)n1 [PYRAZOSULFURON ETHYL] the Activity (Pontederia vaginalis [1]) was 93%, the Activity (Echinochloa crus-galli [2]) was 90% and the Activity (Cyperus serotinus [3]) was 100%. For the same molecule, the Activity (Sagittaria pygmaea [4]) was 98%, the inhibition of growth at 5 g/ha [5] was over 90% and the Activity (Oryza sativa [6]) was 102%. The Activity (Oryza sativa [7]) was 104%, the Activity (Oryza sativa [8]) was 104% and the Activity (Oryza sativa [9]) was 107%. The Activity (Oryza sativa [10]) was 104%, the Activity (Cyperus serotinus [11]) was 97% and the Activity (Pontederia vaginalis [12]) was 100%. It also gave an Activity [13] of 100%, an Activity (Oryza sativa [14]) of 101% and an Activity (Oryza sativa [15]) of 96%. For the same molecule, the Activity (Pontederia vaginalis [16]) was 100%, the Activity (Cyperus serotinus [17]) was 98% and the Activity [18] was 97%. The Activity (Echinochloa crus-galli [19]) was 98%, the I75 (Sagittaria pygmaea [20]) was 1.9 gAi/ha and the Activity [21] was 100%.
